Measured values reported in ChEMBL document CHEMBL4680302, “Biologic-like In Vivo Efficacy with Small Molecule Inhibitors of TNFα Identified Using Scaffold Hopping and Structure-Based Drug Design Approaches” (J Med Chem, 2020).

Key:
Tumor necrosis factor [1] = molecular target: T1, Tumor necrosis factor (Homo sapiens, UniProt P01375); assay: Displacement of fluorescent labeled probe from human recombinant His-tagged TNFalpha (77 to 233 residues) expressed in Escherichia coli preincubated for 1 hr followed by fluorogenic probe addition and measured after 3 hrs by HTRF assay
[2] = Metabolic stability in human liver microsomes assessed as parent compound remaining after 10 mins; format: ADME, Microsome; settings: read-out: Stabilty
[3] = Metabolic stability in mouse liver microsomes assessed as parent compound remaining after 10 mins; format: ADME, Microsome; settings: read-out: Stabilty
Tumor necrosis factor [4] = molecular target: T1, Tumor necrosis factor; assay: Inhibition of exogenous human TNFalpha in HEK-Blue-CD40L cells assessed as reduction in TNF-alpha-induced NFkappaB activation incubated for 18 hrs by quanti-blue based SEAP assay; format: cell-based
Cytochrome P450 2C19 = Cytochrome P450 2C19 (Homo sapiens, UniProt P33261); assay: Inhibition of recombinant CYP2C19 (unknown origin); format: ADME
Cytochrome P450 2C9 = Cytochrome P450 2C9 (Homo sapiens, UniProt P11712); assay: Inhibition of recombinant CYP2C9 (unknown origin); format: ADME
Cytochrome P450 2C9, sequence (P11712 whole entry): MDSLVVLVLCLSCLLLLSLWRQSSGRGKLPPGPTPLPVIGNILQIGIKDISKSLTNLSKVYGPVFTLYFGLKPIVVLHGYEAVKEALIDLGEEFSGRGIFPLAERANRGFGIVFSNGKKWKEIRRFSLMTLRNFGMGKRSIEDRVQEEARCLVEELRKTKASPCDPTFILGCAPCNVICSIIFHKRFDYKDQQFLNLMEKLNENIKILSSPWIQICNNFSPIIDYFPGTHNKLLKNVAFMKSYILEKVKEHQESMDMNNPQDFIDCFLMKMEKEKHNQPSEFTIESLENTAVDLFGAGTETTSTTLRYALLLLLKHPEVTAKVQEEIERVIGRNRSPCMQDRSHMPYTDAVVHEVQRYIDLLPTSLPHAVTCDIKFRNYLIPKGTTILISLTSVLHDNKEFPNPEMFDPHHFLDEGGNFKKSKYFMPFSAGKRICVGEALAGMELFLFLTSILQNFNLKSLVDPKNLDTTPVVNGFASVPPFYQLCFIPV

T1 sequence (P01375 whole entry, the tested form may be a part): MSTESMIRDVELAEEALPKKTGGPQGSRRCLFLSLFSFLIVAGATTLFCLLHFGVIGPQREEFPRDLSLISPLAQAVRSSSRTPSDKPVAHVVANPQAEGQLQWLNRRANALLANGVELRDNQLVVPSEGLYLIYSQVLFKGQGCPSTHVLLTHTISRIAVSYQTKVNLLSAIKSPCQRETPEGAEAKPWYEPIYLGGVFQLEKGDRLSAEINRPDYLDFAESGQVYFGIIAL
Cytochrome P450 2C19, sequence (P33261 whole entry): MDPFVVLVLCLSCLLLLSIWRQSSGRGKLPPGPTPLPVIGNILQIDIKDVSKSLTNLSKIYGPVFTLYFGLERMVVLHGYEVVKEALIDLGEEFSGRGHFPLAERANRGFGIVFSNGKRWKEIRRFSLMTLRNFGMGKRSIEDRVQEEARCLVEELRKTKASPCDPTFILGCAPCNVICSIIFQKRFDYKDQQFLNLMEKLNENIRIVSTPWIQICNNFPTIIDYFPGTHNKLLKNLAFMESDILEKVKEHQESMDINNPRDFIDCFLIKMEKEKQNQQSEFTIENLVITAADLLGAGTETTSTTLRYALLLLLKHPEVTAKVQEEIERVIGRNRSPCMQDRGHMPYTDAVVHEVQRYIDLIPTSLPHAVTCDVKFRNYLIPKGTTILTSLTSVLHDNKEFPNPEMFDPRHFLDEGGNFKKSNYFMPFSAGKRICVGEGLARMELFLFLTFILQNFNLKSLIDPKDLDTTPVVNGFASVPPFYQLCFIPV

remaining at 10 min [2] [%] | remaining at 10 min [3] [%] | IC50 (Cytochrome P450 2C19) [nM] | IC50 (Cytochrome P450 2C9) [nM] | SMILES | IC50 (Tumor necrosis factor [1]) [nM] | IC50 (Tumor necrosis factor [4]) [nM]
50 | 21 | – | – | CC(Nc1c(Cl)cnc2ccc(-c3cnc(C(C)(C)O)nc3)cc12)c1ccccn1 (racemic) | 264 | > 25000
81 | 49 | – | – | CC(Nc1c(Cl)cnc2ccc(-c3cnc(C(C)(C)O)nc3)cc12)c1ccccc1C(F)(F)F (racemic) | 51 | 407
67 | 25 | – | – | CC(Nc1c(Cl)cnc2c(F)cc(-c3cnc(C(C)(C)O)nc3)cc12)c1ccccc1F (racemic) | 46 | 224
70 | 28 | – | – | CC(Nc1c(Cl)cnc2cc(F)c(-c3cnc(C(C)(C)O)nc3)cc12)c1ccccc1F (racemic) | 48 | 64
69 | 13 | – | – | CC(C)C(Nc1c(Cl)cnc2ccc(-c3cnc(C(C)(C)O)nc3)cc12)c1ccccc1F (racemic) | 57 | 826
47 | 32 | – | – | CC(Nc1c(Cl)cnc2ccc(-c3cnc(C(C)(C)O)nc3)cc12)c1cccc(F)c1 (racemic) | 31 | 1040
45 | 50 | – | – | C[C@@H](Nc1c(Cl)cnc2ccc(-c3cnc(C(C)(C)O)nc3)cc12)c1ccccc1 | 14 | 496
84 | 41 | 30 | – | CC(Nc1c(Cl)cnc2ccc(-c3cnc(C(C)(C)O)nc3)nc12)c1ccccc1F (single isomer, unassigned; enantiomer 2) | 38 | 473
30 | 18 | – | – | C[C@@H](Nc1c(Cl)cnc2ccc(-c3cnc(C(C)(C)O)nc3)cc12)c1cc(N2CCCC2)ccc1F | 94 | 331
40 | 7 | – | – | CC(Nc1c(Cl)cnc2c(Cl)cc(-c3cnc(C(C)(C)O)nc3)cc12)c1ccccc1F (racemic) | 106 | > 25000
– | – | 2100 | 2800 | Cc1ccc(C)c(Nc2c(Cl)c(C)nc3ccc(-c4cnc(C(C)(C)O)nc4)cc23)c1 | 51 | 196
57 | 38 | – | – | CCC(Nc1c(Cl)cnc2ccc(-c3cnc(C(C)(C)O)nc3)cc12)c1ccccc1F (racemic) | 35 | 368
35 | 24 | 30 | 600 | Cc1ccc(C)c(Nc2c(Cl)cnc3ccc(-c4cnc(C(C)(C)O)nc4)cc23)c1 | – | 105
32 | 28 | – | – | CCOc1ncc(-c2ccc3ncc(Cl)c(N[C@H](C)c4ccccc4F)c3c2)cn1 | 15 | 587
33 | 30 | – | – | Cc1ccc(C)c(Nc2c(Cl)cnc3ccc(-c4ccc(C#N)nc4)cc23)c1 | 35 | 73
57 | 34 | – | – | C[C@@H](Nc1c(Cl)cnc2ccc(-c3cnc(N4CCS(=O)(=O)CC4)nc3)cc12)c1ccccc1F | 25 | 152
59 | 54 | – | – | C[C@@H](Nc1c(Cl)cnc2ccc(-c3cnc(C(C)(C)O)nc3)cc12)c1ccccc1F | 17 | 110
76 | 47 | – | – | CC(C)(O)c1ncc(-c2ccc3ncc(Cl)c(NC(C)(C)c4ccccc4)c3c2)cn1 | > 10000 | > 25000
57 | 61 | – | – | CC(C)(O)c1ncc(-c2ccc3ncc(Cl)c(NCc4ccccc4)c3c2)cn1 | 82 | > 25000
79 | 23 | – | – | C[C@@H](Nc1c(Cl)cnc2ccc(-c3cnc(C(C)(C)O)nc3)cc12)c1cc(C#N)ccc1F | 48 | 49
51 | 34 | – | – | CC(Nc1c(Cl)cnc2ccc(-c3cnc(C(C)(C)O)nc3)cc12)c1ccccc1F (racemic) | 27 | 190

The remaining lines, values behind:

SMILES | remaining at 10 min [2] [%] | remaining at 10 min [3] [%] | IC50 (Cytochrome P450 2C19) [nM] | IC50 (Cytochrome P450 2C9) [nM] | IC50 (Tumor necrosis factor [1]) [nM] | IC50 (Tumor necrosis factor [4]) [nM]
C[C@H](Nc1c(Cl)cnc2ccc(-c3cnc(C(C)(C)O)nc3)cc12)c1ccccc1 | 32 | 26 | – | – | 943 | > 25000
CC(Nc1c(Cl)cnc2ncc(-c3cnc(C(C)(C)O)nc3)cc12)c1ccccc1F (racemic) | – | – | – | – | 207 | –
C[C@@H](Nc1c(Cl)cnc2ccc(-c3cnc(C(C)(C)O)nc3)cc12)c1cc(N)ccc1F | 70 | 45 | – | – | 37 | 41
CC(Nc1c(Cl)cnc2ccc(-c3cnc(C(C)(C)O)nc3)c(Cl)c12)c1ccccc1F (racemic) | – | – | – | – | 116 | 365
C[C@@H](Nc1c(Cl)cnc2ccc(-c3ccc(C(C)(C)O)cc3)cc12)c1ccccc1F | 73 | 24 | – | – | 47 | 65
C[C@@H](Nc1c(Cl)cnc2ccc(-c3cnc(N4CCN(CC(=O)O)CC4)nc3)cc12)c1ccccc1F | 86 | 57 | – | – | – | 115
C[C@@H](Nc1c(Cl)cnc2ccc(-c3ccc(S(C)(=O)=O)nc3)cc12)c1ccccc1F | 33 | 31 | – | – | 15 | 909
CC(Nc1c(Cl)cnc2cnc(-c3cnc(C(C)(C)O)nc3)cc12)c1ccccc1F (racemic) | – | – | – | – | 400 | –
Cc1ccc(C)c(Nc2c(C)cnc3ccc(-c4cnc(C(C)(C)O)nc4)cc23)c1 | – | – | – | – | – | 107
C[C@@H](Nc1ccnc2ccc(-c3cnc(C(C)(C)O)nc3)cc12)c1cc(N2CCCC2)ccc1F | 46 | 51 | – | – | 15100 | > 25000
Cc1ccc(C)c(Nc2c(Cl)cnc3ccc(Br)cc23)c1 | – | – | – | – | 36 | 840
CC(Nc1c(Cl)cnc2cc(Cl)c(-c3cnc(C(C)(C)O)nc3)cc12)c1ccccc1F (racemic) | – | – | – | – | 54 | 178
CC(Nc1c(Cl)cnc2ccc(-c3cnc(C(C)(C)O)nc3)cc12)c1ccc(F)cc1 (racemic) | 42 | 38 | – | – | 62 | 840
CC(Nc1c(Cl)cnc2ccc(-c3cnc(C(C)(C)O)nc3)nc12)c1ccccc1F (single isomer, unassigned; enantiomer 1) | – | – | – | – | 39 | 753
CC(Nc1c(Cl)cnc2ccc(-c3cnc(C(C)(C)O)nc3)nc12)c1ccccc1F (racemic) | – | – | – | – | 24 | –
Cc1ccc(C)c(Nc2ccnc3ccc(-c4ccc(C#N)nc4)cc23)c1 | – | – | – | – | 428 | > 25000
